In the supplement of paper PMC8671470:

Experiments:
Settings in all cases: 72 h
HL-60 [1] = experiment: area under dose-response curve (viability, 1 nM-10 uM) (fraction (0-1)); higher = more sensitive
How it was run: (§1)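 HL-60 cells grown in RPMI 1640 with 10% FBS were rescreened against the full library in 384-well plates, in duplicate, at five tenfold concentrations from 1 to 10,000 nM, alongside DMSO or 100 nM of one of three metabolic inhibitors for 72 h at 37 °C, 5% CO2. Reference wells contained DMSO or 10 μM proteasome inhibitor. Viability was read with CellTiter-Glo and normalised to these reference wells, and where reported, area under the curve was taken from four-parameter log-logistic fits in drc and PharmacoGx.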

HL-60 [2] = experiment: cell viability (% survival relative to DMSO control); higher = less cytotoxic
How it was run: as §1

[3] = test system: myeloid leukemia patient primary cells Pat.3; experiment: cell viability (% survival relative to DMSO control); higher = less cytotoxic
How it was run: (§2)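 Mononuclear cells from patients with AML or CML were thawed, purified on Ficoll and placed in RPMI 1640 with 10% FBS at 10,000 cells/well on 384-well plates. The plates came pre-printed with 70 compounds at five tenfold concentrations spanning 1–10,000 nM, in duplicate, and cells were exposed for 72 h. CellTiter-Glo gave viability, scaled between DMSO wells and wells with 10 μM proteasome inhibitor. Where reported, area under the curve was obtained from log-logistic fits with four parameters using the drc and PharmacoGx R packages.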

[4] = test system: myeloid leukemia patient primary cells Pat.4; experiment: as above
How it was run: as §2

[5] = test system: myeloid leukemia patient primary cells Pat.11; experiment: as above
How it was run: as §2

[6] = test system: myeloid leukemia patient primary cells Pat.15; experiment: as above
How it was run: as §2

[7] = test system: myeloid leukemia patient primary cells Pat.9; experiment: as above
How it was run: as §2

[8] = test system: myeloid leukemia patient primary cells Pat.10; experiment: as above
How it was run: as §2

[9] = test system: myeloid leukemia patient primary cells Pat.1; experiment: as above
How it was run: as §2

[10] = test system: myeloid leukemia patient primary cells Pat.2; experiment: as above
How it was run: as §2

[11] = test system: myeloid leukemia patient primary cells Pat.12; experiment: as above
How it was run: as §2

[12] = test system: myeloid leukemia patient primary cells Pat.6; experiment: as above
How it was run: as §2

[13] = test system: myeloid leukemia patient primary cells Pat.14; experiment: as above
How it was run: as §2

[14] = test system: myeloid leukemia patient primary cells Pat.7; experiment: as above
How it was run: as §2

[15] = test system: myeloid leukemia patient primary cells Pat.5; experiment: as above
How it was run: as §2

[16] = test system: myeloid leukemia patient primary cells Pat.13; experiment: as above
How it was run: as §2

[17] = test system: myeloid leukemia patient primary cells Pat.8; experiment: as above
How it was run: as §2

CN(C)CCNC(=O)c1cccn2c(=O)c3cc4ccccc4cc3nc12 [Bmh-21]
Settings	area under dose-response curve, co-treatment: AZD3965 100 nM	area under dose-response curve, co-treatment: DMSO vehicle	area under dose-response curve, co-treatment: GSK2194069 100 nM	cell viability, 1 nM [%]	cell viability, 10 nM [%]	cell viability, 100 nM [%]	cell viability, 1000 nM [%]	cell viability, 10000 nM [%]
HL-60 [1]	0.0645	0.0352	0.0524	–	–	–	–	–
[3]	–	–	–	94.4	90.3	88.3	12.1	3.46
[4]	–	–	–	81.3	89.6	93.9	3.78	1.54
[5]	–	–	–	> 100	97.6	> 100	24.3	1.02
[6]	–	–	–	91.5	99.6	92.4	0.134	0.56
[7]	–	–	–	63	90.4	69.9	3.68	3.45
[8]	–	–	–	74.6	87.5	72.1	38.9	17.3
[9]	–	–	–	85.9	91.9	91.5	3.71	0.712
[10]	–	–	–	96.5	98.5	97.8	91.6	33.1
[11]	–	–	–	94.1	91.9	97.3	55.1	0.342
[12]	–	–	–	96.4	> 100	> 100	67.1	10.2
[13]	–	–	–	87.3	95	90.6	42.8	3.08
[14]	–	–	–	59.2	82.6	92.7	14.1	4.95
[15]	–	–	–	35.6	94.1	79.9	1.33	0.265
[16]	–	–	–	87.4	96.6	84.1	19.7	1.27
[17]	–	–	–	81.8	74.6	79.8	88.3	< 0

cell viability [%], HL-60 [2]
Settings	0.001 µM	0.01 µM	0.1 µM	1 µM	10 µM
co-treatment: AZD3965 100 nM	97.56	95.3	101	91.9	48.8
co-treatment: DMSO vehicle	101.2	98.3	102	98.4	74.2
co-treatment: GSK2194069 100 nM	98.9	102	101	94.5	66
co-treatment: pictilisib 100 nM	94.2	100.6	104	85.7	73.8

Nc1nc(O)c2c(CCc3ccc(C(=O)N[C@@H](CCC(=O)O)C(=O)O)cc3)c[nH]c2n1 [Pemetrexed]
Settings	area under dose-response curve, co-treatment: AZD3965 100 nM	area under dose-response curve, co-treatment: DMSO vehicle	area under dose-response curve, co-treatment: GSK2194069 100 nM	area under dose-response curve, co-treatment: pictilisib 100 nM	cell viability, 1 nM [%]	cell viability, 10 nM [%]	cell viability, 100 nM [%]	cell viability, 1000 nM [%]	cell viability, 10000 nM [%]
HL-60 [1]	0.24	0.233	0.236	0.223	–	–	–	–	–
[3]	–	–	–	–	> 100	79.5	76.8	50.9	45.7
[4]	–	–	–	–	> 100	93.8	93.1	67.3	82.8
[5]	–	–	–	–	> 100	> 100	> 100	> 100	93.9
[6]	–	–	–	–	96.9	98.4	> 100	63.2	94.2
[7]	–	–	–	–	94.3	67.3	50.7	> 100	32.6
[8]	–	–	–	–	85.8	86	51.4	81.3	59.3
[9]	–	–	–	–	> 100	99.3	> 100	96.8	84.1
[10]	–	–	–	–	81.9	96.3	97.9	94.3	87.3
[11]	–	–	–	–	> 100	94.2	95.4	99.1	97.1
[12]	–	–	–	–	96.3	> 100	97.8	98.7	78.6
[13]	–	–	–	–	86.9	82.5	90.2	94.7	52.5
[14]	–	–	–	–	98.8	68.1	84.5	74.1	66.3
[15]	–	–	–	–	> 100	88.1	43.2	83.4	14.5
[16]	–	–	–	–	91.5	94.6	90.8	82.7	82
[17]	–	–	–	–	91.8	88.4	89.8	78.1	87.6

cell viability [%], HL-60 [2]
Settings	0.001 µM	0.01 µM	0.1 µM	1 µM	10 µM
co-treatment: AZD3965 100 nM	91.8	98.6	107	41.5	28
co-treatment: DMSO vehicle	102	100.6	112	43.8	36.8
co-treatment: GSK2194069 100 nM	71.6	95.7	122	40.1	32.2
co-treatment: pictilisib 100 nM	74.2	100.6	121	47.2	32.2
